Experimental data from PubChem BioAssay (NCI).
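Each compound was tested at five concentrations against cells in 96-well plates for 48 hours. Here, GI50 denotes the concentration required for 50% inhibition of growth. The concentration for full growth arrest is given as TGI.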

Tests used:
Experiment in all cases: NCI-60 cell line screen, 48 h
[1] = system: SK-MEL-5 melanoma
[2] = system: SK-MEL-2 melanoma
[3] = system: M14 melanoma
[4] = system: KM12 colon
[5] = system: OVCAR-3 ovarian
[6] = system: SF-295 CNS
[7] = system: CCRF-CEM leukemia
[8] = system: HS 578T breast
[9] = system: NCI/ADR-RES ovarian
[10] = system: IGROV1 ovarian
[11] = system: RXF 393 renal
[12] = system: UACC-62 melanoma
[13] = system: T-47D breast
[14] = system: LOX IMVI melanoma
[15] = system: MALME-3M melanoma
[16] = system: SF-539 CNS
[17] = system: HL-60(TB) leukemia
[18] = system: SR leukemia
[19] = system: OVCAR-4 ovarian
[20] = system: NCI-H23 lung
[21] = system: OVCAR-8 ovarian
[22] = system: SK-MEL-28 melanoma
[23] = system: DU-145 prostate
[24] = system: PC-3 prostate
[25] = system: UACC-257 melanoma
[26] = system: RPMI-8226 leukemia
[27] = system: HCC-2998 colon
[28] = system: SK-OV-3 ovarian
[29] = system: HT29 colon
[30] = system: TK-10 renal
[31] = system: HCT-116 colon
[32] = system: NCI-H226 lung
[33] = system: SW-620 colon
[34] = system: U251 CNS
[35] = system: MCF7 breast
[36] = system: MDA-MB-435
[37] = system: HOP-62 NSCLC
[38] = system: MOLT-4 leukemia
[39] = system: HCT-15 colon
[40] = system: OVCAR-5 ovarian
[41] = system: MDA-MB-231 breast
[42] = system: SNB-75 CNS
[43] = system: NCI-H522 lung
[44] = system: 786-0 renal
[45] = system: SNB-19 CNS
[46] = system: SF-268 CNS
[47] = system: UO-31 renal
[48] = system: ACHN renal
[49] = system: BT-549 breast
[50] = system: K-562 leukemia
[51] = system: EKVX NSCLC
[52] = system: A498 renal
[53] = system: NCI-H460 lung
[54] = system: A549 NSCLC
[55] = system: SN12C renal
[56] = system: COLO 205 colon
[57] = system: HOP-92 NSCLC
[58] = system: CAKI-1 renal

With `O=Cc1cn(Cc2ccc(Cl)cc2)c2ccccc12` as the compound, how does the GI50 [1] read?
Its GI50 is 8.18 µM.

And the TGI [1]?
The TGI was 22.3 µM.

What about the GI50 [2] of the same compound?
Its GI50 is 8.49 µM.

And the TGI [2]?
The TGI was 66.1 µM.

What about the GI50 [3] of the same compound?
Its GI50 is 15.2 µM.

What about the TGI [3] of the same compound?
Its TGI is 72.5 µM.

And the GI50 [4]?
Its GI50 is 26.4 µM.

And the TGI [4]?
Its TGI is > 100 µM.

What about the GI50 [5] of the same compound?
The GI50 was 6.64 µM.

What about the TGI [5] of the same compound?
The TGI was 61.7 µM.

And the GI50 [6]?
The GI50 was 0.992 µM.

And the TGI [6]?
The TGI was 34.9 µM.

And the GI50 [7]?
The GI50 was 19.7 µM.

And the TGI [7]?
The TGI was > 100 µM.

And the GI50 [8]?
Its GI50 is 19.2 µM.

What about the TGI [8] of the same compound?
The TGI was > 100 µM.

What about the GI50 [9] of the same compound?
Its GI50 is 13.9 µM.

What about the TGI [9] of the same compound?
Its TGI is > 100 µM.

And the GI50 [10]?
The GI50 was 1.22 µM.

What about the TGI [10] of the same compound?
Its TGI is 39.4 µM.

And the GI50 [11]?
Its GI50 is 4.59 µM.

And the TGI [11]?
The TGI was 51.8 µM.

What about the GI50 [12] of the same compound?
The GI50 was 1.32 µM.

And the TGI [12]?
The TGI was 9.09 µM.

And the GI50 [13]?
Its GI50 is 1.84 µM.

And the TGI [13]?
The TGI was 69.7 µM.

And the GI50 [14]?
Its GI50 is 12.1 µM.

What about the TGI [14] of the same compound?
Its TGI is > 95 µM.

What about the GI50 [15] of the same compound?
Its GI50 is 14.3 µM.

What about the TGI [15] of the same compound?
The TGI was 43.3 µM.

And the GI50 [16]?
The GI50 was 16.6 µM.

And the TGI [16]?
The TGI was 50.3 µM.

And the GI50 [17]?
The GI50 was 22.5 µM.

What about the TGI [17] of the same compound?
The TGI was 72.8 µM.

And the GI50 [18]?
Its GI50 is 16.5 µM.

What about the TGI [18] of the same compound?
The TGI was > 79.4 µM.

And the GI50 [19]?
Its GI50 is 4.39 µM.

What about the TGI [19] of the same compound?
The TGI was > 100 µM.

And the GI50 [20]?
The GI50 was 8.37 µM.

And the TGI [20]?
The TGI was > 100 µM.

What about the GI50 [21] of the same compound?
Its GI50 is 23.5 µM.

What about the TGI [21] of the same compound?
Its TGI is > 100 µM.

And the GI50 [22]?
Its GI50 is 33.6 µM.

What about the TGI [22] of the same compound?
The TGI was > 100 µM.

What about the GI50 [23] of the same compound?
Its GI50 is 22.3 µM.

And the TGI [23]?
The TGI was > 100 µM.

And the GI50 [24]?
The GI50 was 12.8 µM.

And the TGI [24]?
The TGI was 73.2 µM.

And the GI50 [25]?
The GI50 was 2.05 µM.

What about the TGI [25] of the same compound?
The TGI was 7.44 µM.

What about the GI50 [26] of the same compound?
The GI50 was 7.14 µM.

What about the TGI [26] of the same compound?
Its TGI is > 100 µM.

And the GI50 [27]?
Its GI50 is 14.3 µM.

And the TGI [27]?
The TGI was > 100 µM.

And the GI50 [28]?
The GI50 was 1.84 µM.

And the TGI [28]?
Its TGI is 44.8 µM.

What about the GI50 [29] of the same compound?
The GI50 was 24.4 µM.

And the TGI [29]?
Its TGI is > 100 µM.

What about the GI50 [30] of the same compound?
The GI50 was 0.162 µM.

What about the TGI [30] of the same compound?
The TGI was 1.52 µM.

What about the GI50 [31] of the same compound?
Its GI50 is 4.83 µM.

And the TGI [31]?
Its TGI is 30 µM.

And the GI50 [32]?
Its GI50 is 0.041 µM.

What about the TGI [32] of the same compound?
Its TGI is 0.251 µM.

What about the GI50 [33] of the same compound?
Its GI50 is 13.2 µM.

What about the TGI [33] of the same compound?
The TGI was > 100 µM.

What about the GI50 [34] of the same compound?
Its GI50 is 13.3 µM.

And the TGI [34]?
Its TGI is > 100 µM.

And the GI50 [35]?
Its GI50 is 4.12 µM.

And the TGI [35]?
Its TGI is > 67.2 µM.

And the GI50 [36]?
The GI50 was 23 µM.

What about the TGI [36] of the same compound?
Its TGI is > 100 µM.

What about the GI50 [37] of the same compound?
The GI50 was 2.63 µM.

What about the TGI [37] of the same compound?
The TGI was > 100 µM.

And the GI50 [38]?
The GI50 was 17.9 µM.

And the TGI [38]?
Its TGI is > 82.7 µM.

What about the GI50 [39] of the same compound?
The GI50 was 15.5 µM.

What about the TGI [39] of the same compound?
Its TGI is > 100 µM.

What about the GI50 [40] of the same compound?
Its GI50 is 0.082 µM.

And the TGI [40]?
Its TGI is 0.659 µM.

And the GI50 [41]?
The GI50 was 9.7 µM.

And the TGI [41]?
The TGI was > 56.3 µM.

What about the GI50 [42] of the same compound?
Its GI50 is 8.26 µM.

And the TGI [42]?
The TGI was > 100 µM.

And the GI50 [43]?
Its GI50 is 73.2 µM.

And the TGI [43]?
The TGI was > 100 µM.

And the GI50 [44]?
Its GI50 is 13.6 µM.

What about the TGI [44] of the same compound?
The TGI was 64.5 µM.

What about the GI50 [45] of the same compound?
Its GI50 is 19.4 µM.

What about the TGI [45] of the same compound?
The TGI was > 100 µM.

And the GI50 [46]?
The GI50 was 21.4 µM.

What about the TGI [46] of the same compound?
The TGI was > 100 µM.

What about the GI50 [47] of the same compound?
The GI50 was 3.35 µM.

What about the TGI [47] of the same compound?
Its TGI is 45.4 µM.

What about the GI50 [48] of the same compound?
The GI50 was 27.4 µM.

And the TGI [48]?
The TGI was > 100 µM.

What about the GI50 [49] of the same compound?
The GI50 was 11.4 µM.

What about the TGI [49] of the same compound?
Its TGI is 49.2 µM.

What about the GI50 [50] of the same compound?
The GI50 was 4.21 µM.

What about the TGI [50] of the same compound?
The TGI was > 100 µM.

And the GI50 [51]?
The GI50 was 21 µM.

What about the TGI [51] of the same compound?
The TGI was > 100 µM.

And the GI50 [52]?
Its GI50 is 0.0342 µM.

And the TGI [52]?
Its TGI is 0.172 µM.

And the GI50 [53]?
The GI50 was 0.115 µM.

What about the TGI [53] of the same compound?
The TGI was 11.2 µM.

And the GI50 [54]?
The GI50 was 13.4 µM.

What about the TGI [54] of the same compound?
The TGI was > 100 µM.

And the GI50 [55]?
The GI50 was 14.9 µM.

And the TGI [55]?
Its TGI is > 100 µM.

And the GI50 [56]?
The GI50 was 2.17 µM.

And the TGI [56]?
Its TGI is 20.7 µM.

And the GI50 [57]?
The GI50 was 4.43 µM.

And the TGI [57]?
Its TGI is 49 µM.

And the GI50 [58]?
Its GI50 is 0.101 µM.

And the TGI [58]?
The TGI was 3.42 µM.
